Data set [1] deals with TRAMPC-1 mouse prostate cancer cells. Nature of the data set: Prostate cancer subcutaneous model, treatment from day 6, tumor size. It is filed as in vivo, mice. The following applies: Anti-CD8 Ab 5 mg/kg i.p. As to the method: In this study, male C57BL/6J mice (6 weeks old, male, n=10) were purchased from Kyodo (Saga, Japan) and maintained under a 12-hour light/12-hour dark cycle with free access to water and standard mouse diet (MF diet; Oriental Yeast Co., Ltd. Tokyo Japan). Mice were implanted with TRAMPC-1 mouse prostate cancer cells (1,000,000 cells/mouse) (ATCC, Manassas, Va.) in the subcutaneous. From the 6th day (early stage of tumor growth), mice were treated with a bolus dose of dCNP (described in Example 1) (0.3 mg/kg s.c. or 1.0 mg/kg s.c.) with or without Anti-CD8 antibody (a-CD8; 5 mg/Kg i.p.; BioX cells, West Lebanon, N.H.) in buffer containing Methionine 100 mM (Tokyo Chemical Industry Co., Ltd., Tokyo, Japan); Sucrose 100 mM (Tokyo Chemical Industry Co., Ltd.); Histidine 50 mM (Tokyo Chemical Industry Co., Ltd.); in H2O (Otsuka Pharmaceutical, Tokushima, Japan)], Docetaxel (1 mg/kg i.p.) in Saline with or without Anti-CD8 Ab (5 mg/kg i.p.) as reference control, and or with Phosphate buffered saline (PBS) alone via i.p. as control. Mice were treated total of 14 days (5 days of once daily, 2 days of rest, 5 days of once-daily treatment and 2 days rest). Anti-CD8 Ab (a-CD8) was administered on −2, 1, 4, 7, 10 and 13th day. Tumor sizes were measured with caliper. Statistical analysis was performed by Student t-tests by using GraphPad Prism *P<0.0001 vs. Control or a-CD8 group (n=10). […]

For data set [2] the test system is unchanged. Nature of the data set: Prostate cancer subcutaneous model, treatment from day 19, tumor size. It is filed as in vivo, mice. The procedure: (§1) In this study, male C57BL/6J mice (6 weeks old, male, n=10) were purchased from Kyodo (Saga, Japan) and maintained under a 12-hour light/12-hour dark cycle with free access to water and standard mouse diet (MF diet; Oriental Yeast Co., Ltd. Tokyo Japan). Mice were implanted with TRAMPC-1 mouse prostate cancer cells (1,000,000 cells/mouse) (ATCC, Manassas, Va.) in the subcutaneous. From the 19th day (averaged tumor size was 70 mm3), mice were treated with a bolus dose of long acting CNP derivative or dCNP (described in Example 1) (0.3 mg/kg s.c. or 1.0 mg/kg s.c.) in buffer [Methionine 100 mM (Tokyo Chemical Industry Co., Ltd., Tokyo, Japan); Sucrose 100 mM (Tokyo Chemical Industry Co., Ltd.); Histidine 50 mM (Tokyo Chemical Industry Co., Ltd.); in H2O (Otsuka Pharmaceutical. Tokushima, Japan)], Docetaxel (DTX1 mg/kg i.p.) in Saline, all with or without anti-CD8 (5 mg/Kg i.p.; BioX cell; West Lebanon, N.H.) or Phosphate buffered saline (PBS) alone via i.p. All Docetaxel groups were used as mechanism of action comparator chemotherapeutic agent. Mice were treated total of two weeks (5 days of once daily, 2 days of rest, 5 days of once-daily treatment and 2 days rest). Anti-CD8 Ab was administered every 3 days starting day 19th. Tumor sizes were measured with caliper.

The test system is the same in data set [3]. Briefly: Gene expression within prostate tumor (quantitative RT-PCR). The following applies: tumor harvested at day 30. It is filed as in vivo, mice. As to the method:
as §1, with “Pharmaceutical,” for “Pharmaceutical.”, “(DTX 1” for “(DTX1”, “for 2” for “total of two”, “was harvested at day 30 and extracted RNA, then Quantitative RT-PCR was performed; error bars are SEM. Statistical analysis was performed by Student t-tests by using GraphPad Prism *P<0.05 or **P<0.01 vs. Control group (n=3-6).” for “sizes were measured with caliper.”

Data set [4] is described as follows: Pharmacokinetic study of dCNP-s1 and dCNP-s2: plasma CNP after subcutaneous bolus in CD-1 mice. In kind it is in vivo. The following applies: subcutaneous bolus 2.0 mg/Kg, FIG. 30. As to the method: For this pharmacokinetic study, all animals (mice) for this study were maintained under a 12-hour light/12-hour dark cycle with free access to water and standard mouse diet (Lab Pico Rodent #5053; Animal Specialties, Woodburn, Oreg.). Male CD-1 mice (6-8 weeks old; Charles River, Hollister, Calif.) were treated with 2.0 mg/Kg of CNP derivative s1 (dCNP-s1; PharmaIN Corp, Bothell, Wash.), and CNP derivative s2 (dCNP-s2: PharmaIN Corp, Bothell, Wash.) via subcutaneous bolus administration between the shoulder blades.

Data set [5] is described as follows: Immune activation in normal healthy mice (blood FACS, spleen gene expression). To be noted: normal healthy mice, 0.1, 0.3, 1.0 mg/kg s.c. day 1-5. In kind it is in vivo. The procedure: In this study, male C57BL/6J mice (6 weeks old n=3) were purchased from Kyodo (Saga, Japan) and maintained under a 12-hour light/12-hour dark cycle with free access to water and standard mouse diet (MF diet; Oriental Yeast Co., Ltd. Tokyo Japan). Mice were treated with a bolus dose of 0, 0.1, 0.3, and 1.0 mg/kg CNP derivative or dCNP (described in Example 1) in buffer (Methionine 100 mM (Tokyo Chemical Industry Co., Ltd., Tokyo, Japan), sucrose 100 mM (Tokyo Chemical Industry Co., Ltd.), histidine 50 mM (Tokyo Chemical Industry Co., Ltd.); in H2O (Otsuka Pharmaceutical, Tokushima, Japan)) or buffer alone (for control group). Administration is by bolus subcutaneous injection under isoflurane anesthesia, at day 1, 2, 3, 4, and 5. Blood was harvested on day 5 under the isoflurane vapor and plasma were obtained by added EDTA and red blood cells were removed by pharma lyse (BD, Franklin Lakes, N.J.). Cells were analyzed by FACS (BD, Franklin lakes, NJ). The spleen was harvested on day 5 under isoflurane vapor, then placed in the Tri reagent (Cosmobio, Tokyo, Japan) for further analysis. Statistical analysis was performed by Student t-tests by using GraphPad Prism *P<0.05 vs. Control. **P<0.01 vs Control (n=5).

Data set [6] is described as follows: Pharmacokinetic study: plasma CNP (ELISA) after subcutaneous bolus in CD-1 mice. The following applies: subcutaneous 2.0 mg/Kg, FIG. 1A. As to the method:
All test articles were formulated or dissolved in 100 mM sorbitol, 100 mM methionine, 20 mM histidine, pH 6.0. […] Blood samples were processed in K2EDTA tubes to obtain plasma. Plasma was analyzed by commercially available CNP ELISA kit from Phoenix Pharmaceuticals (cat #EKE-012-03). […] [SEQ ID NO. 6]. […] The details of the polymer are described in Castillo et al., Pharm. Res., (2012) 29(1); p 306-18, herein incorporated by reference in its entirety.
Error bars represent standard deviation of n=5 plasma samples.
Background: In an ELISA, binding on a coated surface is turned into a signal by an enzyme label.

The conditions of data set [7]: bolus injection, healthy human volunteers; cited from earlier work.
For data set [8] the following is noted: species not stated; cited from earlier work.

Where “and” joins values, the source holds several entries; their conditions need not be identical. Identical values can stand only once. Numbered stars: 1 amine (or outer) side, 2 acyl side, 3 side chain; on linkers, the order of the positions; unused ones are H or OH. Bridge positions count the residues as written; N and C are the ends. Square brackets hold non-standard residues; d marks the D form. Peptide text beside a SMILES is read from it. * marks the point of attachment. C18 diacid = O=C(O)CCCCCCCCCCCCCCCCC(=O)*; γGlu = O=C(O)[C@H](CCC(=O)[*:2])N[*:1]; Aad = N[C@@H](CCCC(=O)O)C(=O)O; AEEA = NCCOCCOCC(=O)O

For `CC(=O)O[C@@]12CO[C@@H]1C[C@H](O)[C@@]1(C)C(=O)[C@H](O)C3=C(C)[C@@H](OC(=O)[C@H](O)[C@@H](NC(=O)OC(C)(C)C)c4ccccc4)C[C@@](O)([C@@H](OC(=O)c4ccccc4)[C@H]21)C3(C)C` [Docetaxel], the “tumor growth suppressing effect in the presence of Anti-CD8 antibody” value in data set [1] is on record as “remained”. Besides, the “anti-tumor effect with anti-CD8 antibody” value in data set [2] (anti-CD8 5 mg/Kg i.p.) is recorded as “could not be neutralized by Anti-CD8”. Moreover, in data set [3], the “Ang 2 gene expression within the prostate tumor” value is on record as “not”, the “TGFβ gene expression within the prostate tumor” value is on record as “not” and the “alpha-smooth muscle actin (α-SMA) gene expression within the prostate tumor” value was “not”.
For the compound `CC[C@H](C)[C@@H]1NC(=O)[C@H](CCCNC(=N)N)NC(=O)[C@H](CC(=O)O)NC(=O)[C@H](CC(C)C)NC(=O)[C@H](CCCCN)NC(=O)[C@H](CC(C)C)NC(=O)CNC(=O)[C@H](Cc2ccccc2)NC(=O)[C@@H](NC(=O)CNC(=O)COCCOCCNC(=O)COCCOCCNC(=O)CCCCCCCCCCCCCCCCC(=O)O)CSSC[C@@H](C(=O)O)NC(=O)CNC(=O)[C@H](CC(C)C)NC(=O)CNC(=O)[C@H](CO)NC(=O)[C@H](CCCC(N)=O)NC(=O)[C@H](CO)NC(=O)CNC1=O` [dCNP-s1] ({C18 diacid-AEEA-AEEA}-GCFGLKLDRIGS[Aad](NH2)SGLGC-OH; disulfide 2-18), in data set [4], the “blood level of CNP relative to native CNP at similar weight/Kg dose” value amounted to 10 fold.
On the same count and under the same terms, then `CC[C@H](C)[C@@H]1NC(=O)[C@H](CCCNC(=N)N)NC(=O)[C@H](CC(=O)O)NC(=O)[C@H](CC(C)C)NC(=O)[C@H](CCCCN)NC(=O)[C@H](CC(C)C)NC(=O)CNC(=O)[C@H](Cc2ccccc2)NC(=O)[C@@H](NC(=O)CNC(=O)COCCOCCNC(=O)COCCOCCNC(=O)CC[C@H](NC(=O)CCCCCCCCCCCCCCCCC(=O)O)C(=O)O)CSSC[C@@H](C(=O)O)NC(=O)CNC(=O)[C@H](CC(C)C)NC(=O)CNC(=O)[C@H](CO)NC(=O)[C@H](CCCC(N)=O)NC(=O)[C@H](CO)NC(=O)CNC1=O` [dCNP-s2] ({C18 diacid-γGlu-AEEA-AEEA}-GCFGLKLDRIGS[Aad](NH2)SGLGC-OH; disulfide 2-18), with 10 fold.
As to `CCCCCCCCCCCCCCCCCC(=O)N[C@@H](CCCCN)C(=O)N[C@@H](CCCCN)C(=O)N[C@@H](CCCCN)C(=O)N[C@@H](CCCCN)C(=O)NCC(=O)NCC(=O)NCC(=O)NCC(=O)N[C@@H](CC(C)C)C(=O)N[C@@H](CO)C(=O)N[C@@H](CCCCN)C(=O)NCC(=O)N[C@H]1CSSC[C@@H](C(=O)O)NC(=O)CNC(=O)[C@H](CC(C)C)NC(=O)CNC(=O)[C@H](CO)NC(=O)[C@H](CCSC)NC(=O)[C@H](CO)NC(=O)CNC(=O)[C@H]([C@@H](C)CC)NC(=O)[C@H](CCCNC(=N)N)NC(=O)[C@H](CC(=O)O)NC(=O)[C@H](CC(C)C)NC(=O)[C@H](CCCCN)NC(=O)[C@H](CC(C)C)NC(=O)CNC(=O)[C@H](Cc2ccccc2)NC1=O` [dCNP], the lethality entry in data set [2] (TRAMPC-1 tumor bearing mice) was “less lethal than cytotoxic chemotherapeutic agent (Docetaxel)”. Further, the “cytotoxic (CD8) T-cells in blood” value in data set [5] is reported as “increase”.
By half-life is commonly meant the time needed for the level to fall by half in the phase considered. Take `CC[C@H](C)[C@@H]1NC(=O)[C@H](CCCNC(=N)N)NC(=O)[C@H](CC(=O)O)NC(=O)[C@H](CC(C)C)NC(=O)[C@H](CCCCN)NC(=O)[C@H](CC(C)C)NC(=O)CNC(=O)[C@H](Cc2ccccc2)NC(=O)[C@@H](NC(=O)CNC(=O)[C@H](CCCCN)NC(=O)[C@H](CO)NC(=O)[C@H](CC(C)C)NC(=O)CN)CSSC[C@@H](C(=O)O)NC(=O)CNC(=O)[C@H](CC(C)C)NC(=O)CNC(=O)[C@H](CO)NC(=O)[C@H](CCSC)NC(=O)[C@H](CO)NC(=O)CNC1=O` [native CNP]: the “plasma CNP” value in data set [6] is listed as “low plasma level”. In addition, in data set [7], the heart rate result is “significant increase”; the “systolic and diastolic blood pressure” value is recorded as “significant decrease”. The half-life in data set [8] is 2 to 13 min and 2 min.

Source of the values: patent publication US20230241164A1, “C-Type Natriuretic Peptides and Methods Thereof in Treating Cancer” (PHARMAIN CORPORATION, priority 2020, published 2023).
